Results as given in ChEMBL document CHEMBL3352625, “Development of novel neurokinin 3 receptor (NK3R) selective agonists with resistance to proteolytic degradation” (J Med Chem, 2014).
Each block holds one compound with its values, some of them ahead of it. Calls of active or inactive are those of the source. The rule behind the calls is not given here. Where a SMILES comes first, the peptide text is derived from it. [ ]: non-standard residue; d: D form. NMeF = CN[C@@H](Cc1ccccc1)C(=O)O

Legend:
[1] = biological target: T1, Neuromedin-K receptor (Homo sapiens, UniProt P29371); assay: Displacement of [125I]His3, MePhe7 from human NK3R expressed in CHO cell membranes by scintillation counting
T1 sequence (P29371 whole entry): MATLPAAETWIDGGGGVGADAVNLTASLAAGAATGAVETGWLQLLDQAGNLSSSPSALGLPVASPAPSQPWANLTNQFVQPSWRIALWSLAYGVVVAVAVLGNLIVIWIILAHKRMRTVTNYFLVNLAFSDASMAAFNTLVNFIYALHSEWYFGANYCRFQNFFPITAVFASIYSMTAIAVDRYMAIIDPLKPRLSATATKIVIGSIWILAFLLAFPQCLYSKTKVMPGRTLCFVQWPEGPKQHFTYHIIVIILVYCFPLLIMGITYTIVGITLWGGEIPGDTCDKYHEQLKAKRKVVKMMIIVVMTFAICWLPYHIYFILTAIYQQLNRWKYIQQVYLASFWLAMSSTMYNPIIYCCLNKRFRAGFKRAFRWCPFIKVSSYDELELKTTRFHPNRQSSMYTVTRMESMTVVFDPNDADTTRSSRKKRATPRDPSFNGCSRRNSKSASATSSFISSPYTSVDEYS

[2] = biological target: T1, Neuromedin-K receptor; assay: (§1) Agonist activity at human NK3R expressed in CHO cells assessed as induction of Ca2+ influx […]; format: functional, cell-based
[3] = biological target: T2, Substance-K receptor (Homo sapiens) (UniProt P21452); assay: Displacement of [125I]-NKA from […] expressed in CHO cell membranes at 10 uM by scintillation counting
T2 sequence (whole entry): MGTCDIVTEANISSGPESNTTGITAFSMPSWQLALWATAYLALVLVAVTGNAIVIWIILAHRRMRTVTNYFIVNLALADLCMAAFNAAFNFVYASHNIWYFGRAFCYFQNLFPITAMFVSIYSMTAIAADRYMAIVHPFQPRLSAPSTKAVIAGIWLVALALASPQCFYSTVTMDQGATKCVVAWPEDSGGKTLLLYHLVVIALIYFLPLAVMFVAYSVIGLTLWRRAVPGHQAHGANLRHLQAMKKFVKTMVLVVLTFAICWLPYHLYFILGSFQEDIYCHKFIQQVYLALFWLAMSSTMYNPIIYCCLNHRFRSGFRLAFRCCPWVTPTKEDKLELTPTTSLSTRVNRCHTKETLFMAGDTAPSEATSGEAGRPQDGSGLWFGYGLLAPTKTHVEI

[4] = biological target: Substance-P receptor (Homo sapiens) (UniProt P25103); assay: Displacement of [125I]-BH-SP from human NK1R expressed in CHO cell membranes at 10 uM by scintillation counting
[5] = Drug metabolism in pig hypothalamic extract assessed as peptide H-Met-His-Asp-Phe-Phe-MePhe-Gly-Leu-Met-NH2 formation by HPLC analysis; format: ADME, Sus scrofa, Hypothalamus
[6] = system: Serum; assay: Drug metabolism in rat serum assessed as peptide H-Phe-MePhe-Gly-Leu-Met-OH formation by HPLC analysis; format: ADME, cell-free
[7] = system: Serum; assay: Drug metabolism in cattle serum assessed as peptide H-Phe-MePhe-Gly-Leu-Met-NH2 formation by HPLC analysis; format: ADME, cell-free, Bos taurus
[8] = Drug metabolism in pig hypothalamic extract assessed as peptide H-Phe-MePhe-Gly-Leu-Met-NH2 formation by HPLC analysis; format: ADME, Sus scrofa, Hypothalamus
[9] = Drug metabolism in pig hypothalamic extract assessed as peptide H-Asp-Phe-Phe-MePhe-Gly-Leu-Met-NH2 formation by HPLC analysis; format: ADME, Sus scrofa, Hypothalamus
[10] = Drug metabolism in pig serum assessed as peptide H-His-Asp-Phe-Phe-MePhe-Gly-Leu-Met-NH2 formation by HPLC analysis; format: ADME, cell-free, Sus scrofa
[11] = Drug metabolism in pig serum assessed as peptide H-Asp-Phe-Phe-MePhe-Gly-Leu-Met-NH2 formation by HPLC analysis; format: ADME, cell-free, Sus scrofa
[12] = Drug metabolism in pig hypothalamic extract assessed as peptide H-Phe-Phe-MePhe-Gly-Leu-Met-NH2 formation by HPLC analysis; format: ADME, Sus scrofa, Hypothalamus
[13] = system: Serum; assay: Drug metabolism in cattle serum assessed as peptide H-His-Asp-Phe-Phe-MePhe-Gly-Leu-Met-NH2 formation by HPLC analysis; format: ADME, cell-free, Bos taurus
[14] = Drug metabolism in goat serum assessed as peptide H-Phe-MePhe-Gly-Leu-Met-NH2 formation by HPLC analysis; format: ADME, cell-free, Capra hircus
[15] = Drug metabolism in pig hypothalamic extract assessed as peptide H-Phe-MePhe-Gly-OH formation by HPLC analysis; format: ADME, Sus scrofa, Hypothalamus
[16] = system: Serum; assay: Drug metabolism in rat serum assessed as peptide H-Phe-MePhe-Gly-Leu-Met-NH2 formation by HPLC analysis; format: ADME, cell-free
[17] = Drug metabolism in goat serum assessed as peptide H-His-Asp-Phe-Phe-MePhe-Gly-Leu-Met-NH2 formation by HPLC analysis; format: ADME, cell-free, Capra hircus
[18] = Drug metabolism in pig hypothalamic extract assessed as peptide H-Phe-MePhe-Gly-Leu-Met-OH formation by HPLC analysis; format: ADME, Sus scrofa, Hypothalamus
[19] = system: Serum; assay: Drug metabolism in rat serum assessed as peptide H-Asp-Phe-Phe-MePhe-Gly-Leu-Met-NH2 formation by HPLC analysis; format: ADME, cell-free
[20] = Drug metabolism in goat serum assessed as peptide H-Asp-Phe-Phe-MePhe-Gly-Leu-Met-NH2 formation by HPLC analysis; format: ADME, cell-free, Capra hircus
[21] = system: Serum; assay: Drug metabolism in rat serum assessed as H-His-Asp-Phe-Phe-MePhe-Gly-Leu-Met-NH2 2 formation by HPLC analysis; format: ADME, cell-free
[22] = Drug metabolism in pig hypothalamic extract assessed as peptide H-His-Asp-Phe-Phe-MePhe-Gly-Leu-Met-NH2 formation by HPLC analysis; format: ADME, Sus scrofa, Hypothalamus
[23] = system: Serum; assay: Drug metabolism in cattle serum assessed as peptide H-Asp-Phe-Phe-MePhe-Gly-Leu-Met-NH2 formation by HPLC analysis; format: ADME, cell-free, Bos taurus
[24] = Drug metabolism in pig serum assessed as peptide H-Phe-MePhe-Gly-Leu-Met-NH2 formation by HPLC analysis; format: ADME, cell-free, Sus scrofa
[25] = biological target: T3, Neuromedin-K receptor (Homo sapiens) (UniProt P29371); assay: as §1; format: functional, cell-based
T3 sequence (whole entry): T1 sequence (P29371 whole entry)

Chain of Substance-P receptor (Homo sapiens) (P25103 whole entry): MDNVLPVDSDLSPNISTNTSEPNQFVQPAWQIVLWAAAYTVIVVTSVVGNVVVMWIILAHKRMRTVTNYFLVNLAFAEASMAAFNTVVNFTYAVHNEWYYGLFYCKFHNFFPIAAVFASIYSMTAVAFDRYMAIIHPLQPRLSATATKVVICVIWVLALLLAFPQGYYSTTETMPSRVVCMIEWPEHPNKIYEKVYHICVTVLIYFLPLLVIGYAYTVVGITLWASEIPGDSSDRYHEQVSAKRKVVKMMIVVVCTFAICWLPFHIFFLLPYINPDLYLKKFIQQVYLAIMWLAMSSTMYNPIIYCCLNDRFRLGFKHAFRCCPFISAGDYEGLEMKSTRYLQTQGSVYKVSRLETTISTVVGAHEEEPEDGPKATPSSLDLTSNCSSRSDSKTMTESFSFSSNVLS

IC50 [1]: 59 nM
EC50 [2]: 91 nM
inhibition [3]: 73%
inhibition [4]: 15%
SMILES: CSCC[C@H](NC(=O)[C@H](CC(C)C)NC(=O)CNC(=O)[C@H](Cc1ccccc1)N(C)C(=O)[C@H](Cc1ccccc1)NC(=O)[C@H](Cc1ccccc1)NC(=O)[C@@H](N)CC(=O)O)C(N)=O (H-DFF[NMeF]GLM-NH2)

Drug metabolism [5]: metabolite_notdetected
Drug metabolism [6]: metabolite_detected
Drug metabolism [7]: metabolite_detected
Drug metabolism [8]: metabolite_detected
Drug metabolism [9]: metabolite_notdetected
Drug metabolism [10]: metabolite_detected
Drug metabolism [11]: metabolite_detected
Drug metabolism [12]: metabolite_notdetected
Drug metabolism [13]: metabolite_detected
Drug metabolism [14]: metabolite_detected
Drug metabolism [15]: metabolite_detected
Drug metabolism [16]: metabolite_detected
Drug metabolism [17]: metabolite_detected
IC50 [1]: 12 nM
Drug metabolism [18]: metabolite_detected
Drug metabolism [19]: metabolite_detected
Drug metabolism [20]: metabolite_detected
Drug metabolism [21]: metabolite_detected
EC50 [2]: 64 nM
Drug metabolism [22]: metabolite_notdetected
Drug metabolism [23]: metabolite_detected
Drug metabolism [24]: metabolite_detected
SMILES: CSCC[C@H](NC(=O)[C@H](CC(C)C)NC(=O)CNC(=O)[C@H](Cc1ccccc1)N(C)C(=O)[C@H](Cc1ccccc1)NC(=O)[C@H](Cc1ccccc1)NC(=O)[C@H](CC(=O)O)NC(=O)[C@H](Cc1cnc[nH]1)NC(=O)[C@H](CCSC)NC(=O)[C@@H](N)CC(=O)O)C(N)=O (H-DMHDFF[NMeF]GLM-NH2)

IC50 [1]: 2900 nM
EC50 [2]: 240 nM
inhibition [3]: 84%
inhibition [4]: 49%
SMILES: CSCC[C@H](NC(=O)[C@H](CC(C)C)NC(=O)CNC(=O)[C@H](Cc1ccccc1)N(C)C(=O)[C@H](Cc1ccccc1)NC(=O)[C@@H](N)Cc1ccccc1)C(N)=O (H-FF[NMeF]GLM-NH2)

IC50 [1]: 2300 nM
EC50 [2]: 350 nM
inhibition [3]: 77%
inhibition [4]: 70%
SMILES: CSCC[C@H](NC(=O)[C@H](CC(C)C)NC(=O)CNC(=O)[C@H](Cc1ccccc1)N(C)C(=O)[C@@H](N)Cc1ccccc1)C(N)=O (H-F[NMeF]GLM-NH2)

EC50 [2]: > 100000 nM
SMILES: CSCC[C@H](NC(=O)[C@H](CC(C)C)NC(=O)CNC(=O)[C@H](Cc1ccccc1)N(C)C(=O)[C@@H](N)Cc1ccccc1)C(=O)O (H-F[NMeF]GLM-OH)

IC50 [1]: 43 nM
EC50 [2]: 280 nM
inhibition [3]: 74%
inhibition [4]: 18%
SMILES: CSCC[C@H](NC(=O)[C@H](CC(C)C)NC(=O)CNC(=O)[C@H](Cc1ccccc1)N(C)C(=O)[C@H](Cc1ccccc1)NC(=O)[C@H](Cc1ccccc1)NC(=O)[C@H](CC(=O)O)NC(=O)[C@@H](N)Cc1cnc[nH]1)C(N)=O (H-HDFF[NMeF]GLM-NH2)

Activity [25]: inactive
SMILES: CSCC[C@H](NC(=O)[C@@H](N)CC(C)C)C(N)=O (H-Leu-Met-NH2)
